The values below come from patent US6407083B1, “Uses of novel organoselenium compounds with pro-oxidant activity” (Oxis International, Inc., priority 1996, dated 2002).

A word on the mortality: it is the share of the test organisms that died. High values mean fewer survivors, low ones more survivors. The melting point is the temperature, or range, at which the solid turns liquid.

In series [1] the test system is MCF-7 cells from a breast cancer of human origin. The series is described as follows: Cytotoxicity on MCF-7 cells (MTT viability test). Type of series: cell-based. As to conditions: for mortality at 0.195 µM: MCF7, 0.195 μM; for mortality at 0.391 µM: MCF7, 0.391 μM; for mortality at 0.781 µM: MCF7, 0.781 μM; for mortality at 1.562 µM: MCF7, 1.562 μM; for mortality at 3.125 µM: MCF7, 3.125 μM; for mortality at 6.25 µM: MCF7, 6.25 μM; for mortality at 12.5 µM: MCF7, 12.5 μM; for mortality at 25 µM: MCF7, 25 μM; for mortality at 50 µM: MCF7, 50 μM. As to the method: The MCF-7 cells from a breast cancer of human origin are cultivated, in an atmosphere of a gaseous mixture of 95% air and 5% CO2, saturated with water, two days before the test, in order to be in a growth phase during the toxicity test. The cells are trypsinized and are collected in a RPMI 1640 medium containing 10% FCS, 10 mM HEPES, 1 mM pyruvate, 4 mM L-glutamine, 100 U/ml penicillin, 100 μg/ml streptomycin, in order to be centrifuged at 1,500 rpm for 10 minutes. The cell pellet is resuspended in the same medium in order to obtain a cell density of 30,000 cells/cm^2.
The compounds of general structure IA described in the present invention are solubilised at 10 mM in absolute ethanol and diluted in RPMI-10% FCS culture medium, the final volume of ethanol in the reaction medium is 0.5% (v/v). The molecules are studied at the following concentrations: 50; 25; 12.5; 6.25; 3.125; 1.562; 0.781; 0.391 and 0.195 μM. Two controls are carried out, in the presence and in the absence of ethanol respectively, using 100 μl of cell suspension of 30,000 cells/cm^2 incubated with 100 μl of RPMI-10% FCS medium and ±0.5% of ethanol (v/v).
Before starting the study, the cells are rinsed with PBS buffer which contains neither calcium nor magnesium. The cells are then incubated with 200 μl of compound under test, or with the medium containing or not 0.5% of ethanol (controls) for either 24 or 48 hours under an atmosphere of a gaseous mixture of 95% air and 5% CO2, saturated with water, at 37° C., then submitted to the viability test with MTT according to the following protocol.
To 200 μl of culture medium are added 50 μl of MTT at 5 mg/ml in PBS buffer. After 4 hours of incubation at 37° C., the plate is centrifuged for 10 minutes at 3,000 rpm. The supernatant is removed and the cell pellet is resuspended in 100 μl of DMSO. This is left to incubate for 10 minutes with stirring at 37° C. The coloration developed is measured at 550 nm against DMSO. The optical density OD=f(living cells) can then be plotted as a function of time.
A general note: Tetrazolium assays rely on reduction of a dye to a coloured formazan, in cell work by metabolically active cells.

The test system of series [2] is NADPH in the presence of glutathione (GSH) and glutathione disulfide reductase. The series is described as follows: Glutathione oxidase activity (consumption of NADPH in the presence of GSH and glutathione disulfide reductase). Type of series: biochemical. The conditions noted are these: pH 7.3, 37° C. As to the method:
To 1.5 ml of 50 mM HEPES buffer, pH 7.3, containing 2.47 mM of reduced glutathione (GSH), 0.32 mM of nicotinamide adenine dinucleotide phosphate (NADPH), and 1.23 units/ml of glutathione disulfide reductase (GR), at 37° C., are added, in the following order:
320 μl of 50 mM HEPES buffer, pH 7.3, containing 0.1 mM of DTPA, pre-equilibrated at 37° C.
30 μl of a 5 mM ethanolic mother-solution of the compound under test or 30 μl of absolute ethanol (blank). Each compound is tested at a final concentration of 81 μM.
The final reaction volume is 1850 μl.
The glutathione oxidase activity is assayed at 37° C. by measuring the reduction in absorbance at 340 nm over 5 minutes. The said initial enzymatic rate or activity is proportional to the slope of the plot of absorbance against time.
The catalytic activity for oxygen reduction in the compounds under test corresponds to the rate of consumption of NADPH.
Furthermore, the effects of superoxide dismutase (SOD), catalase, iodoacetamide (IAA) and Se-GPx on the glutathione oxidase activity of the tested compounds have been studied.
the necessary and sufficient quantity, variable according to the case, of 50 mM HEPES, pH 7.3, containing 0.1 mM of DTPA, pre-equilibrated at 37° C.; the final reaction volume being 1850 μl.
either 100 μl of a solution of 1850 units/ml of SOD in water of ultrapure quality,
or 100 μl of a solution of 1850 units/ml of catalase in water of ultrapure quality and 100 μl of a solution of 1850 units/ml of SOD in water of ultrapure quality,
or 150 μl of a 6.2 mM solution of iodoacetamide in 50 mM HEPES buffer, pH 7.3, containing 0.1 mM DTPA,
or 100 μl of a solution of 10 units/ml of glutathione peroxidase Se-GPx in 50 mM HEPES buffer, pH 7.3, containing 0.1 mM of DTPA,
or 100 μl of a solution of 1850 units/ml of SOD in water of ultrapure quality, and 100 μl of a solution of 10 units/ml of glutathione peroxidase Se-GPx in 50 mM HEPES buffer, pH 7.3, containing 0.1 mM of DTPA.
30 μl of a 5 mM ethanolic mother-solution of the compound under test.
The glutathione oxidase activity is assayed at 37° C. by monitoring the decrease in the absorbance at 340 nm over 15 minutes. The said initial enzymatic rate or activity is proportional to the slope of the plot of absorbance against time.
The consumption of NADPH has been calculated from the slopes of the curves obtained (OD/minute): [formula]
Vt=total volume of the reaction =1850 μl
ε=molar extinction coefficient of NADPH=[…]. M^−1. cm^−1
They are expressed in nmoles of NADPH oxidized per minute.

For the compound `CC/C(=C(\c1ccccc1)c1ccc(OCCN2[Se]c3c([N+](=O)[O-])cccc3C2(C)C)cc1)c1ccccc1` [Bxt-57007, N-{2-[4-(1,2-diphenylbut-1-en-1-yl)phenoxy]ethyl}3,3-dimethyl-7-nitrobenzisoselenazoline], in series [1] (24 h), the mortality at 0.195 µM amounted to 0%, the mortality at 0.391 µM was 1.02%, the mortality at 0.781 µM was 8.39% and the mortality at 1.562 µM was determined as 12.9%. In series [1] (24 h), this compound returned a mortality at 3.125 µM of 13.3%, a mortality at 6.25 µM of 19.4%, a mortality at 12.5 µM of 28.6% and a mortality at 25 µM of 36.6%. For the same compound, the mortality at 50 µM in series [1] (24 h) was found to be 40.8%. Moreover, in series [1] (48 h), the mortality at 0.195 µM is 1.07%, the mortality at 0.391 µM is 8.42%, the mortality at 0.781 µM was 14.2% and the mortality at 1.562 µM came to 25.1%. In series [1] (48 h), this compound gave a mortality at 3.125 µM of 18.7%, a mortality at 6.25 µM of 33.2%, a mortality at 12.5 µM of 44.6% and a mortality at 25 µM of 46.8%. In addition, in series [1] (48 h), the mortality at 50 µM was 46.3%.

In series [1] (24 h), `CC(=O)N1[Se]c2c([N+](=O)[O-])cccc2C1(C)C` [Bxt-57004, N-acetyl-3,3-dimethyl-7-nitrobenzisoselenazoline] yielded a mortality at 0.195 µM of 0%, a mortality at 0.391 µM of 3.19%, a mortality at 0.781 µM of 34.9% and a mortality at 1.562 µM of 59.4%. In series [1] (24 h), the mortality at 3.125 µM is 71.2%, the mortality at 6.25 µM amounted to 73.3%, the mortality at 12.5 µM is 79.8% and the mortality at 25 µM amounted to 92.8%. The same compound showed a mortality at 50 µM in series [1] (24 h) of 100%. In series [1] (48 h), this compound gave a mortality at 0.195 µM of 17.4%, a mortality at 0.391 µM of 12.8%, a mortality at 0.781 µM of 38.6% and a mortality at 1.562 µM of 60.5%. In series [1] (48 h), the mortality at 3.125 µM is 69.1%, the mortality at 6.25 µM came to 76.4%, the mortality at 12.5 µM came to 75.8% and the mortality at 25 µM came to 88.4%. Moreover, the mortality at 50 µM in series [1] (48 h) is 100%.

Compound `CC12CCC3c4ccc(O)cc4CC(CCCCCCCCN4[Se]c5c([N+](=O)[O-])cccc5C4(C)C)C3C1CCC2O` (stereo not shown) came in with a melting point of 95 °C.

For `CC(=O)N1CC(C)(C)c2cccc([N+](=O)[O-])c2[Se]1`, the melting point is 127 °C.

`CC1(C)CN[Se]c2c([N+](=O)[O-])cccc21` had a melting point of 108 °C.

In the case of `CC1(C)N[Se]c2c([N+](=O)[O-])cccc21` [Bxt-51062, 3,3-Dimethyl-7-nitrobenzisoselenazoline], the “GSH oxidase activity, nmole NADPH oxidized/min” value in series [2] (compound + GSH + GR-NADPH + SOD and CAT) was 79.29 nmole NADPH oxidized/min. For the same compound, the “GSH oxidase activity, nmole NADPH oxidized/min” value in series [2] (compound + GSH + GR-NADPH + SOD) amounted to 78.78 nmole NADPH oxidized/min. The “GSH oxidase activity, nmole NADPH oxidized/min” value in series [2] (compound + GSH + GR-NADPH + Se-GPx and SOD) is given as 78.45 nmole NADPH oxidized/min. Further, the “GSH oxidase activity, nmole NADPH oxidized/min” value in series [2] (compound + GSH + GR-NADPH + Se-GPx) was found to be 80.61 nmole NADPH oxidized/min. The “GSH oxidase activity, nmole NADPH oxidized/min” value in series [2] (compound + GSH + GR-NADPH ± IAA (iodoacetamide)) was found to be 76.25 nmole NADPH oxidized/min. For the same compound, the “GSH oxidase activity, nmole NADPH oxidized/min” value in series [2] (compound + GSH + GR-NADPH, no further effector) is 77.17 nmole NADPH oxidized/min. In series [1] (24 h), this compound showed a mortality at 0.195 µM of 0%, a mortality at 0.391 µM of 0%, a mortality at 0.781 µM of 23.6% and a mortality at 1.562 µM of 42.7%. In series [1] (24 h), this compound gave a mortality at 3.125 µM of 70.1%, a mortality at 6.25 µM of 100%, a mortality at 12.5 µM of 100% and a mortality at 25 µM of 100%. The compound further yielded a mortality at 50 µM in series [1] (24 h) of 100%. In series [1] (48 h), this compound showed a mortality at 0.195 µM of 2.22%, a mortality at 0.391 µM of 0%, a mortality at 0.781 µM of 32.5% and a mortality at 1.562 µM of 58.5%. For the same compound, in series [1] (48 h), the mortality at 3.125 µM stood at 83%, the mortality at 6.25 µM was determined as 100%, the mortality at 12.5 µM came out at 100% and the mortality at 25 µM turned out to be 100%. The same compound registered a mortality at 50 µM in series [1] (48 h) of 100%.

On to `CC1(C)c2cccc([N+](=O)[O-])c2[Se]N1CCO` [Bxt-57001, N-(2-hydroxyethyl)-3,3-dimethyl-7-nitrobenzisoselenazoline], for which, in series [1] (24 h), the mortality at 0.195 µM stood at 0%, the mortality at 0.391 µM was found to be 0%, the mortality at 0.781 µM came out at 16.9% and the mortality at 1.562 µM was 29.4%. In series [1] (24 h), this compound returned a mortality at 3.125 µM of 23.9%, a mortality at 6.25 µM of 55%, a mortality at 12.5 µM of 75.3% and a mortality at 25 µM of 99.1%. This compound gave a mortality at 50 µM in series [1] (24 h) of 99.8%. For the same compound, in series [1] (48 h), the mortality at 0.195 µM came to 0%, the mortality at 0.391 µM came out at 0%, the mortality at 0.781 µM is 0% and the mortality at 1.562 µM is 20%. In series [1] (48 h), the mortality at 3.125 µM was 23.3%, the mortality at 6.25 µM amounted to 41.2%, the mortality at 12.5 µM is 58.5% and the mortality at 25 µM turned out to be 99.8%. Further, the mortality at 50 µM in series [1] (48 h) is 100%.

The compound `CC12CCC3c4ccc(O)cc4CC(CCCCCCCC(=O)N4[Se]c5c([N+](=O)[O-])cccc5C4(C)C)C3C1CCC2O` (stereo not shown) registered a melting point of 128 °C.
